Consider eight molecules from publication PMC6976901 (Toxicology Reports, 2020).

Read-outs that look alike come from different tables or passages of the source. Marks after values point to notes of the source that are not given here.

The conditions of data set [1]: fraction absorbed, oral; cited from earlier work.
The next data set deals with liver (hepatotoxicity). The conditions noted are these: cited from earlier work.
Another data set can be described thus: in vitro. The conditions noted are these: human, Caco-2.
The subject of data set [2] is human intestinal epithelial Caco-2 cell monolayer. The conditions noted are these: apical pH 6.0 to basal pH 7.4, mean ± SD of triplicate; for observed Papp: Table 2 secondary set; for Papp: Table 1 primary set.
[3] abbreviates: Table 2, Hazard Evaluation Support System Integrated Platform.

The Papp is a coefficient for how fast a substance crosses the barrier. A high value points to fast passage. As for `CC(=O)Nc1ccc(O)cc1` [acetaminophen, reference compound], in data set [1], the “reported human Fa” value is 100 [23] %. Moreover, the “hepatic NOEL” value in the data set on liver (hepatotoxicity) (Table 2) was 250 [11] mg/kg/day. The molecule further gave a Papp in “in vitro” of 31.9 ± 1.4 ×10⁻⁶ cm/s.

With `Oc1ccc(Cc2ccc(O)cc2)cc1` [bisphenol F], the “observed Papp” value in data set [2] was 41.5 ± 2.1 ×10⁻⁶ cm/s. The “hepatic NOEL” value in the data set with liver (hepatotoxicity) (setting [3]) was 100 mg/kg/day.

On to `N#Cc1cccc(C#N)c1` [isophthalonitrile], for which the Papp in data set [2] was 805 ± 8 ^a nm/s. For the same molecule, the “hepatic NOEL” value in the data set with liver (hepatotoxicity) (Table 1, Hazard Evaluation Support System Integrated Platform) is recorded as 8 mg/kg/day.

In turn, `CCCCC(CC)COC(=O)c1ccccc1C(=O)O` (stereo not drawn) [mono(2-ethylhexyl) phthalate] displayed a Papp in data set [2] of 467 ± 18 nm/s.

On to `CCOc1ccc(N)cc1` [p-phenetidine], for which the “observed Papp” value in data set [2] came to 58.2 ± 3.1 ×10⁻⁶ cm/s. The “hepatic NOEL” value in the data set on liver (hepatotoxicity) (setting [3]) is recorded as 160 mg/kg/day.

Turning to `OCCOCCN1CCN(C2=Nc3ccccc3Sc3ccccc32)CC1` [quetiapine, reference compound], the “reported human Fa” value in data set [1] is 73 [30] %. This molecule also yielded a Papp in “in vitro” of 3.8 ± 0.4 ×10⁻⁶ cm/s.

`CN(C)C` [trimethylamine]: the Papp in data set [2] is 33 ± 1 nm/s.

As for lucifer yellow [reference compound], the Papp in data set [2] is 7 ± 1 nm/s. Moreover, the “reported human Fa” value in data set [1] is 0 [27] %.
